The values below come from patent US8278296B2, “Manipulation of brain CDP-diacylglycerol and uses thereof” (priority 2006, dated 2012).

“Also recorded” adds a separate entry of the source.

One experiment has as its system CDP-diacylglycerol. Put plainly: [3H]CDP-diacylglycerol accumulation in rat brain slices. Format: cell-based. As to conditions: for effect on [3H]CDP-diacylglycerol accumulation: rat hippocampal, prefrontal cortical and striatal slices, LiCl present; for effect on [3H]CDP-diacylglycerol accumulation / effect on CDP-DG production: 90 min; for effect on CDP-DG accumulation: MAOIs; for effect on CDP-diacylglycerol accumulation: rat cerebrocortical slices, 0.1-300 μM, other psychotropic compounds; for effect on CDP-DG production: monoamine receptor agonists, frontal cortex or hippocampal tissues, 5 mM LiCl.

Experiment [1] has as its system phosphoinositide-specific phospholipase C / PI metabolism. Put plainly: Blockade of PI hydrolysis (neomycin, U73122) on antidepressant-induced CDP-DG, PI and IP responses in brain slices. Format: cell-based, rat. As to conditions: for sensitivity of drug effects to inhibition by U73122: compared with tricyclic agents.
The subject of the next experiment is phosphatidylinositides. The experiment is described as follows: [3H]inositol phospholipid (phosphatidylinositide) resynthesis in rat brain slices. As to conditions: for effect on PI synthesis: monoamine receptor agonists, frontal cortex or hippocampal tissues, 5 mM LiCl; for effect on PI synthesis / effect on [3H]inositol labeling of PIs (phosphatidylinositide synthesis): 90 min; for effect on [3H]inositol labeling of PIs (phosphatidylinositide synthesis): hippocampus, frontal cortex, striatum slices. Format: cell-based.

The subject of a further experiment is inositol phosphates. The experiment is described as follows: [3H]inositol phosphate accumulation in rat brain slices. Format: cell-based. As to conditions: for effect on IP accumulation: monoamine receptor agonists, frontal cortex or hippocampal tissues, 5 mM LiCl, 90 min; for effect on accumulation of IPs: 3-300 μM, hippocampus, frontal cortex, striatum slices.

The subject of experiment [2] is CDP-diacylglycerol/inositol phosphate. The experiment is described as follows: CDP-DG/IP ratio calculated from brain slice data. Format: cell-based, rat. On the procedure: FIGS. 9A-9C are ratios of antidepressant-induced CDP-diacylglycerol versus inositol phosphates. The data in FIGS. 1A-1C, 2A-2B, 3A-3C, 4A-4B, and 5A-5C were recalculated by dividing the CDP-diacylglycerol effects of each concentration of each antidepressant agent by the corresponding effects of the agent on inositol phosphate accumulation to yield the CDP-diacylglycerol/inositol phosphate (CDP-DG/IP) ratios shown. […] Data for each agent were analyzed by One-Way ANOVA followed by posthoc Dunnett tests. ^#p<0.05; *p<0.01; compared to the respective control (zero drug concentration).
As used herein, the term “CDP-DG/IP ratio” refers to the relative value of an index which is the quotient of a level of cellular CDP-diacylglycerol divided by a level of inositol phosphate in a tissue or cell or tissue cultures thereof, e.g., a mammalian brain tissue or blood platelets, a human brain tissue or blood platelets, or other cells or tissues having the ability to metabolize CDP-diacylglycerol and phosphoinositides. Levels may be determined, but are not limited to, using molar concentration or a radiolabel.
To determine if antidepressant agents exert differential effects on CDP-DG production compared to PI hydrolysis, the ratios of CDP-DG production relative to the IPs (CDP-DG/IP ratio) in corresponding treatment conditions were examined.
Corresponding CDP-DG ratios were calculated as for the antidepressant agents. […] The ratios of CDP-DG production relative to IP accumulation are shown on the far right of the graphs in FIGS. 10A-10C and FIGS. 11A-11D.

Another experiment has as its system rats. Put plainly: Forced swim test. Format: in vivo, rat. The following applies: for effect on immobility times in forced swim test: modified regimen, i.p. at 3 h and 1 h before testing; for effect of neomycin pretreatment on immobility-reducing effects of antidepressant drugs: imipramine, fluoxetine, maprotiline.
A further experiment has as its system 5HT2 receptor. As to conditions: hippocampal slices. On the procedure:
Hippocampal slices were incubated with either [^3H]inositol (FIGS. 13A-13B) or [^3H]cytidine (FIG. 13C) for 30 min, followed by addition of indicated concentrations of LY53857 (6-methyl-1-(1-methylethyl)-ergoline-8β-carboxylic acid 2-hydroxy-1-methylpropyl ester maleate). […] After 60 min, tritiated inositol phosphate, inositol phospholipids, or CDP-diacylglycerol were assayed. Each bar is the mean±SEM (n=6). Data for each analyte were normalized across experiments and test drugs and then were analyzed for each drug by One-Way ANOVA of responses measured at the four concentration conditions of LY53857 (0, 0.1, 1, 10 μM). The ANOVAs were followed with Dunnett tests comparing the response in the presence of each concentration of LY53857 to the control effect of the antidepressant alone.
To examine the extent to which the enhancing effects of antidepressant agents on inositol phosphate accumulation were dependent on postsynaptic 5HT2 receptor stimulation, each antidepressant was challenged with a range of concentrations of the 5HT2 receptor-selective antagonist, LY53857 (71-72). The antagonist was added after the prelabeling phase, but 15 min prior to the addition of α-methylserotonin to the incubating slices.

[3] abbreviates: monoamine receptor agonists, frontal cortex or hippocampal tissues.

Experimental for rats: One group of rats was acclimated once in the swim chamber and subgroups of three animals each were administered indicated doses (corresponding to 0, 3, 10, and 30 mg/kg) of imipramine at 24, 3, and 1 h before behavioral testing (conventional regimen). The other group of rats from the same batch was acclimated twice at 48 and 24 h before the time of testing and subgroups were administered the same doses of imipramine at 3 and 1 h before behavioral testing. Animals in each group were then tested in the forced swim apparatus for 5 min and the immobility times determined. […] Each bar is the mean±SEM (n=6). […] Animals were prepared as in FIG. 14 for the modified regimen. […] Test drugs were administered at indicated doses 3 and 1 h before behavioral testing. […] Immobility response data for set one were analyzed by one-way ANOVA (response by dose) in order to determine if the drug by itself produced significant effects. Data for set two were analyzed by one-way ANOVA (response by group, where group comprised control, neomycin, drug, neomycin+drug), followed by posthoc Tukey tests. […] The forced swim test (FST) was applied with some modifications. Rats were transferred to the testing room between 9:00-10:00 AM and allowed at least an hour before being placed individually into translucent polypropylene cylinders (46 cm tall×25 cm in diameter) containing 27 cm depth of water maintained at 25° C. […] After 15 min in the water, the rats were removed, toweled, and allowed to dry in a warm environment before being returned to their home cage. This acclimation step was repeated after 24 h, with the exposure time reduced from 15 to 5 min. […] During the second acclimation exposure, the duration of immobility was recorded for each animal. […] To adjudge that a rat had become immobile, the animal had to float passively in the water in a slightly hunched, but upright position, making only minimal movements necessary to keep its head above the water (65-66). On the third day when animals were to undergo experimental assessment, saline or the indicated antidepressant agents were administered i.p. at 3 h and at 1 h before behavioral testing. The drugs were dissolved in distilled-deionized water and diluted in saline. Control subjects received 0.9% saline. […] Data were analyzed by one-way analysis of variance (ANOVA).

In the case of `CN1Cc2c(N)cccc2C(c2ccccc2)C1` (centres unmarked) [nomifensine], the “effect on [3H]CDP-diacylglycerol accumulation” value with CDP-diacylglycerol is “significantly and dose-dependently enhanced”.

On to `COc1ccc2c(c1)CC[C@@H]1[C@@H]2CC[C@]2(C)[C@@H](NCCCCCCN3C(=O)CCC3=O)CC[C@@H]12` [U73123], for which the “effect on CDP-DG or IP responses” value in experiment [1] (inactive analog control, data not shown) is reported as “without effect”.

On to `N[C@@H]1C[C@H]1c1ccccc1` (racemic) [tranylcypromine], for which the “effect on CDP-DG accumulation” value in the experiment on CDP-diacylglycerol (frontal cortex slices) is “statistically significant but modest effects”.

On to `CN(C)CCCN1c2ccccc2Sc2ccc(Cl)cc21` [chloropromazine], for which, in the experiment with CDP-diacylglycerol, the “effect on CDP-diacylglycerol accumulation” value is listed as “No significant effects or concentration-related effects”.

Take `C#CCN(C)[C@H](C)Cc1ccccc1` [selegiline]: the “effect on CDP-diacylglycerol accumulation” value with CDP-diacylglycerol is listed as “No significant effects or concentration-related effects”.

As for `CCN1CCCC1CNC(=O)c1cc(S(N)(=O)=O)ccc1OC` (centres unmarked) [sulpiride], the “effect on CDP-diacylglycerol accumulation” value in the experiment with CDP-diacylglycerol is “No significant effects or concentration-related effects”.

On to `O=C1CN=C(c2ccccc2)c2cc([N+](=O)[O-])ccc2N1` [nitrazepam], for which the “effect on CDP-diacylglycerol accumulation” value in the experiment on CDP-diacylglycerol is reported as “No significant effects or concentration-related effects”.

Regarding `[Cl-].[Li+]` [LiCl, lithium chloride], the “effect on antidepressant drug-induced [3H]CDP-diacylglycerol production” value in the experiment with CDP-diacylglycerol (5 mM LiCl present or absent, fluoxetine or imipramine, frontal cortex or hippocampus, 60 min) was “did not significantly enhance or inhibit; also recorded: did not significantly alter”.

On to `OCCN1CCN(CC/C=C2/c3ccccc3Sc3ccc(C(F)(F)F)cc32)CC1` [flupenthioxol], for which the “effect on CDP-diacylglycerol accumulation” value in the experiment with CDP-diacylglycerol was “No significant effects or concentration-related effects”.

For the compound `C[N+](C)(C)CCOC(N)=O` [carbachol], the “effect on CDP-DG production” value in the experiment with CDP-diacylglycerol is “significantly increased”. The “effect on PI synthesis” value with phosphatidylinositides is “failed to increase”. The “effect on IP accumulation” value in the experiment on inositol phosphates is reported as “significantly increased”. Moreover, the CDP-DG/IP ratio entry in experiment [2] (setting [3]) is “dramatic decrease”.

Turning to `CCN(CC)CCCC(C)Nc1c2ccc(Cl)cc2nc2ccc(OC)cc12` (centres unmarked) [quinacrine], in the experiment on CDP-diacylglycerol, the “effect on CDP-diacylglycerol accumulation” value is reported as “No significant effects or concentration-related effects”.

As for `O=C1NC(=O)C(c2ccccc2)(c2ccccc2)N1` [phenytoin], in the experiment with CDP-diacylglycerol, the “effect on CDP-diacylglycerol accumulation” value is “No significant effects or concentration-related effects”.

Turning to `NO` [hydroxylamine], the “effect on CDP-diacylglycerol accumulation” value in the experiment with CDP-diacylglycerol is listed as “No significant effects or concentration-related effects”.

Take `C#CCN(C)Cc1ccccc1` [pargyline]: the “effect on CDP-diacylglycerol accumulation” value in the experiment on CDP-diacylglycerol was “No significant effects or concentration-related effects”.

As to `CN1C(=O)CN=C(c2ccccc2)c2cc(Cl)ccc21` [diazepam], in the experiment on CDP-diacylglycerol, the “effect on CDP-diacylglycerol accumulation” value is “No significant effects or concentration-related effects”.

For the compound `Oc1cc2c(cc1O)C(c1ccccc1)CNCC2` (racemic) [SKF38393, (+/−)-1-phenyl-2,3,4,5-tetrahydro-(1H)-3-benzazepine-7,8-diol], the “effect on CDP-DG production” value in the experiment on CDP-diacylglycerol is listed as “significantly increased”. Besides, in the experiment with phosphatidylinositides, the “effect on PI synthesis” value was “significantly enhanced”. In the experiment with inositol phosphates, the “effect on IP accumulation” value is recorded as “significantly increased”. In addition, in experiment [2] (setting [3]), the CDP-DG/IP ratio entry is on record as “increased CDP-DG/IP ratios significantly”. In experiment [2] (prefrontal cortical slices), the “ratio of CDP-DG relative to PIs (CDP-DG/PI ratio)” value is “significantly enhanced” and the “ratio of CDP-DG relative to both inositol derivatives (CDP-DG/IP&PI)” value is reported as “significantly enhanced”. The “effect on immobility times in forced swim test” value (shortened to “effect on immobility times”) in the experiment with rats is listed as “significantly decreased immobility times”.

As to `COc1ccc2c(c1)CC[C@@H]1[C@@H]2CC[C@]2(C)[C@@H](NCCCCCCN3C(=O)C=CC3=O)CC[C@@H]12` [U73122], in experiment [1] (100 μM fluoxetine or 300 μM imipramine, paroxetine, maprotiline, nomifensine, hippocampal or cortical slices), the “inhibition of antidepressant-stimulated IP accumulation” value is recorded as “completely blocked”. Also, the “inhibition of antidepressant drug effects on CDP-DG production” value in experiment [1] (0.1 to 10 μM U73122, cortical or hippocampal slices) is “significantly reduced, but was unable to completely block; also recorded: only partially reduced”. In addition, in experiment [1] (U73122 alone), the “effect of inhibitor by itself on basal CDP-DG production” value was “did not significantly alter; also recorded: no significant effect” and the “effect of inhibitor by itself on basal IP accumulation” value is listed as “did not significantly alter; also recorded: no significant effect”. The “inhibition of SKF38393-induced IP accumulation” value in experiment [1] (brain slices) is reported as “blocked”.

As to `CNCCCC12CCC(c3ccccc31)c1ccccc12` [maprotiline], the “effect on [3H]CDP-diacylglycerol accumulation” value with CDP-diacylglycerol is “significantly and dose-dependently enhanced”. Moreover, the “effect on [3H]inositol labeling of PIs (phosphatidylinositide synthesis)” value in the experiment with phosphatidylinositides is listed as “significantly increased”. In addition, the “effect on accumulation of IPs” value with inositol phosphates is “significantly and dose-dependently stimulated”. Also, the “effect on immobility times” value with rats was “significant and dose-dependent reductions”.

As for `Fc1ccc([C@@H]2CCNC[C@H]2COc2ccc3c(c2)OCO3)cc1` [paroxetine], in experiment [1], the “sensitivity of drug effects to inhibition by U73122” value is given as “more sensitive”.

For `CNCCC(Oc1ccc(C(F)(F)F)cc1)c1ccccc1` (centres unmarked) [fluoxetine], the “effect on [3H]CDP-diacylglycerol accumulation” value in the experiment on CDP-diacylglycerol is “significantly and dose-dependently enhanced”. Moreover, the “effect on [3H]inositol labeling of PIs (phosphatidylinositide synthesis)” value in the experiment with phosphatidylinositides is listed as “significantly increased”. Further, in the experiment on inositol phosphates, the “effect on accumulation of IPs” value is “significantly and dose-dependently stimulated”. The “effect on immobility times” value in the experiment on rats was “significant and dose-dependent reductions”. Besides, the “sensitivity of drug effects to inhibition by U73122” value in experiment [1] is reported as “more sensitive”.

Turning to neomycin, the “effect of neomycin on SKF38393-induced decrease of immobility times” value with rats (iv 2 h prior to testing) is recorded as “blocked”. The “effect of neomycin pretreatment on immobility-reducing effects of antidepressant drugs” value in the experiment on rats (iv 2 h prior to testing) is recorded as “completely reversed”; in the experiment with rats (iv 2 h prior to testing, listed as Neomycin), “abolished”. Moreover, the “effect of neomycin by itself on basal immobility times” value with rats (iv tail vein 2 h prior to testing) is listed as “did not significantly alter”.

In the case of `CC(O)C(C)OC(=O)[C@@H]1C[C@@H]2c3cccc4c3c(cn4C(C)C)C[C@H]2N(C)C1.O=C(O)/C=C\C(=O)O` (stereo partly drawn) [LY53857, 6-methyl-1-(1-methylethyl)-ergoline-8β-carboxylic acid 2-hydroxy-1-methylpropyl ester maleate], the “increase of basal CDP-diacylglycerol” value in the experiment with 5HT2 receptor (0.1 μM) was 20%. For the same compound, the “inhibition of IP responses to antidepressant agents” value in the experiment with 5HT2 receptor (300 μM imipramine, desipramine, paroxetine, maprotiline or 100 μM fluoxetine) is “completely blocked”. Moreover, in the experiment on 5HT2 receptor (0.1, 1, 10 μM), the “effect on basal levels of IPs” value was “did not significantly alter” and the “effect on basal levels of PIs” value was “did not significantly alter”. Besides, in the experiment on 5HT2 receptor (all drugs), the “inhibition of antidepressant-induced CDP-diacylglycerol responses” value is reported as “statistically significantly inhibited” and the “inhibition of antidepressant-induced PI labeling” value was “statistically significantly inhibited”.

With `NNCCc1ccccc1` [phenelzine], the “concentration at which CDP-DG effects achieved significance” value with CDP-diacylglycerol (frontal cortex slices, Dunnett's) came to 1 µM. Further, the “effect on CDP-DG accumulation” value in the experiment on CDP-diacylglycerol (frontal cortex slices) is recorded as “robust effects”. In the experiment on phosphatidylinositides (rat cortical slices, MAOIs), the “effect on [3H]inositol phospholipid synthesis (PI resynthesis)” value was “significant and concentration-dependent increases”. In addition, the CDP-DG/IP ratio result in experiment [2] (antidepressant agents, increasing drug concentrations, hippocampus, similar in cortical tissues) is recorded as “increased significantly”.

For the compound `CN1[C@@H]2CC[C@H]1C[C@@H](OC(c1ccccc1)c1ccccc1)C2` [benztropine], the “effect on CDP-diacylglycerol accumulation” value in the experiment on CDP-diacylglycerol is reported as “No significant effects or concentration-related effects”.

On to `O=C(CCCN1CCC(O)(c2ccc(Cl)cc2)CC1)c1ccc(F)cc1` [haloperidol], for which, in the experiment on CDP-diacylglycerol, the “effect on CDP-diacylglycerol accumulation” value is recorded as “No significant effects or concentration-related effects”.
